Measurements: US8592421B2, “Cyclic bioisosters of purine system derivatives and a pharmaceutical composition based thereon” (priority 2003, dated 2013)

Assays:
[1] = tested on: Ca^2+-independent isoform NOC; assay: Morphine abstinence model: calcium-independent NOC in liver; type: in vivo, rats Wistar; conditions: administration of morphine (FIG. 13)
[2] = tested on: Ca^2+-dependent isoform NOC; assay: Morphine abstinence model: calcium-dependent NOC in liver; type: in vivo, rats Wistar; conditions: administration of morphine (FIG. 13)
[3] = tested on: synthase of nitrogen oxide (NOC); assay: Morphine abstinence model: activity of synthase of nitrogen oxide (NOC), radiometric [3H]L-citrulline method; type: in vivo, rats Wistar; conditions: morphinized rats (FIG. 13)
[4] = Morphine abstinence model: thymus condition (mass, nitrites); type: in vivo, rats; conditions: Administration of morphine; control 230 ± 14
Source text: The spectrometric method is based the reaction of nitrites with the Griss reagent (a mixture of 2% solution of sulfanilamide and 0.2% N-(1-naphthyl)ethylene diamine. At the first step the nitrite reacts with sulfanilamide with formation of diazonium salt, and then with the second component to form azo dye with an adsorption maximum at 540 nm. For reduction of nitrates into nitrites, a fermentative method was used with bacterial reductase nitrate (Grisham M. B. et al., 1995). The samples of plasma and supernathant of the liver deproteinizated at 100° C. for 5 minutes incubated for 30 minutes at 37° C. in 50.0 mM of HEPES pH 7.4 in the presence of 0.2 unit/ml of Aspergillus reductase nitrate, 5.0 mkM of FAD and 0.1 mM of NAD-Ph. At the end of the reaction lactate dehydrogenase and pyruvate were added for isolation of NAD-Ph interfering with the Griss reaction. Then the Griss reagent was added and after 10-minute incubation the light absorption of the samples was measured at 540 nm. To amount of NOX^− was calculated using sodium nitrate as a standard.
The effect of the compounds according to the invention on the condition of the thymus of the rats was also investigated: a control group, an experimental group of morphinized animals and an experimental group of animals were first morphinized and then injected with the compounds according to the invention. The experiment was carried out similarly to that described above.

In the case of CN1CC[C@]23c4c5ccc(O)c4O[C@H]2[C@@H](O)C=C[C@H]3[C@H]1C5 [Morphine, morphine, reference compound], the “activity of the calcium-independent form NOC in the liver” value [1] is reported as “decrease of activity”, the “activity of the calcium-dependent form NOC in the liver” value [2] is reported as “rise of activity” and the “total NOC activity in the liver compared to the control” value [3] is reported as “did not change”. For the same compound, the Thymus mass [4] was 145 ± 9 mg.
